Consider nine molecules from article PMC2972656 (Bioorganic & medicinal chemistry, 2010).

Counter-ions that a name gives are not always drawn.

Assay [1] concerns the target T1, α1β3γ2 GABAA/BzR (Homo sapiens, UniProt P14867+P18507). In words: [3H]flunitrazepam competition binding, α1β3γ2. The following applies: for selectivity for the α1β3γ2 subtype: enantiomeric sec-butyl esters.
For another assay, the system named is BzR. Kind of assay: Binding to BzR, overall statement. The following applies: Boc protection at position-9. Further details: species or system human.
Another assay concerns the target α5β3γ2 GABAA/BzR (Homo sapiens, UniProt P18507+P31644). In words: [3H]flunitrazepam competition binding, α5β3γ2.
The subject of the next assay is other receptors. Kind of assay: NIMH supported PDSP screen. The format is binding.
The target of a further assay is α2β3γ2 GABAA/BzR (Homo sapiens, UniProt P18507+P47869). Kind of assay: [3H]flunitrazepam competition binding, α2β3γ2.
For assay [2], the target named is T1, α1β3γ2 GABAA/BzR. Conditions: binding; cited from earlier work.
Assay [3] has as its system alcohol preferring (P) rats. Conditions: 15–60 mg/kg, comparable with chlordiazepoxide; cited from earlier work.

In the case of `C[C@@H](OC(=O)c1cc2c(cn1)[nH]c1ccccc12)C(F)(F)F` [compound 22, (R)-1,1,1-Trifluoroisopropyl β-carboline-3-carboxylate], at α1β3γ2 GABAA/BzR [1] (binding), the “selectivity for α1 isoforms over α5 isoforms” value is about 70 fold. For `C#Cc1ccc2c(c1)c1cc(C(=O)OC(C)(C)C)ncc1n2C(=O)OC(C)(C)C` [compound 40], the “binding to BzR” value with BzR is on record as “did not bind to BzR at all”. Usually Ki stands for a measure of affinity in units of concentration, obtained from inhibition or displacement. Higher therefore signals a looser hold on the target. On to `CC(C)COc1cc2c(cn1)[nH]c1ccccc12` [compound 37], for which the inhibition constant (Ki) at α5β3γ2 GABAA/BzR is at least 1000 nM. On α1β3γ2 GABAA/BzR [1], `c1ccc(COc2cc3c4ccccc4nc-3c[nH]2)cc1` [compound 35, 3-benzyloxy β-carboline] showed a Ki of 830 nM.

As to `CC[C@H](C)OC(=O)c1cc2c(cn1)[nH]c1ccccc12` [compound 23, (S)-β-Carboline-3-carboxylic acid sec-butyl ester], the “selectivity for the α1β3γ2 subtype” value at α1β3γ2 GABAA/BzR [1] (binding) is on record as about 4 fold. Besides, the Ki at α5β3γ2 GABAA/BzR is 1440 nM. As to `C#Cc1ccc2[nH]c3cnc(C(=O)OC(C)(C)C)cc3c2c1` [7(WYS8), 6-Ethynl-9H-β-carboline-3-carboxylic acid t-butyl ester], in the assay with other receptors, the “interactions at other receptors” value was “neither βCCT, 3PBC, nor WYS8 exhibited significant interactions at other receptors”. With `CC[C@@H](C)OC(=O)c1cc2c(cn1)[nH]c1ccccc12` [compound 24, (R)-β-Carboline-3-carboxylic acid sec-butyl ester], the “selectivity for the α1β3γ2 subtype” value on α1β3γ2 GABAA/BzR [1] (binding) was about 4 fold. At α2β3γ2 GABAA/BzR, the affinity, expressed as Ki, was 32.5 nM. `CC(C)(C)OC(=O)c1cc2c3cc(I)ccc3n(C(=O)OC(C)(C)C)c2cn1` [compound 41]: the “binding to BzR” value with BzR was “did not bind to BzR at all”. Turning to `CCCOc1cc2c(cn1)[nH]c1ccccc12` [2(3-PBC), 3-propoxy-β-carboline hydrochloride], the “interactions at other receptors” value in the assay with other receptors was “neither βCCT, 3PBC, nor WYS8 exhibited significant interactions at other receptors”. For the same molecule, at α1β3γ2 GABAA/BzR [2], the “selectivity for the α1 site over the α5 subtype” value is “over 150 fold”; the “selectivity for the α1 subtype over the α2 and α3 receptors” value is reported as 10 fold. The “effects in the plus maze” value in assay [3] is “anxiolytic effects”.
